Measurements: patent US20260297038A1, “ORTHO-PHTHALALDEHYDE-FUNCTIONALIZED ULTRAVIOLETABSORBERS AND VISIBLE CHROMOPHORES FOR SEMI-PERMANENT TOPICAL APPLICATIONS” (The Regents of the University of Colorado, a body corporate, priority 2023, published 2026)

Columns and labels:
[1] = Ultraviolet-visible absorption spectra of solutions of o-phthalaldehyde ultraviolet absorbers vs the parent carboxylic acids (FIG. 4); format: physicochemical; conditions: solution; for visible absorption introduced by the 3-(3,4-diformylphenyl)propyl moiety: compared with corresponding carboxylic acids
Source text: FIG. 4 is a set of graphs of the ultraviolet-visible absorption spectra of solutions of (a) 4-((3-(2H-benzo[d][1,2,3]triazol-2-yl)-2-hydroxy-5-methylbenzyl)oxy)phthalaldehyde, prepared according to the process described in example 3, and 3-(3-(benzotriazole-2-yl)-5-tert-butyl-4-hydroxyphenyl)propanoic acid, (b) 3-(3-(2H-benzo[d][1,2,3]triazol-2-yl)-5-(tert-butyl)-4-hydroxyphenyl)propanoate, prepared according to the process described in Example 4, and 2-(4-diethylamino-2-hydroxybenzoyl)benzoic acid, (c) 3-(3,4-diformylphenyl)propyl 3-(4-methoxyphenyl)acrylate, prepared according to the process described in example 5, and 4-methoxycinnamic acid.

[2] = system: stratum corneum of excised porcine skin; assay: Semi-permanent retention of topical mark on excised porcine skin after repeated washing, and localization after bisection (FIG. 7); conditions: for retention of the mark on skin after washing: gel dried 10 minutes, washed after 3 hours, washing procedure repeated five times
Source text: FIG. 7 is a set of annotated visible and ultraviolet photographs of excised porcine skin areas exposed to the composition described in Example 8 according to the method of Example 10, labeled o-phthalaldehyde, accompanied by a positive control based on genipin and three negative controls based on a commercially available organic and mineral SPF-30 sunscreens and permanent black marker, taken before the skin was washed, then after one wash, after five washes, and after five washes and bisection.
20 mg of 3,6-dihydroxy-4,5-dimethyl-1,2-benzenedicarboxaldehyde was mixed directly into 230 mg of a gel comprising 79.715% v/v water, 20% v/v ethanol, and 0.285% v/v carbomer 940 and stirred mechanically until a homogenous gel was obtained.
Freshly excised porcine skin was allowed to hydrate in reverse-osmosis purified water for 4 h, then it was cut into rectangular samples and stored for 24 hours in a closed container on top of a paper towel saturated with a solution of 90% water and 10% glycerol. The stratum corneum was wiped with a cotton gauze pad saturated with an aqueous solution of lysine at a concentration of 2 wt %. The gel composition prepared as described in […] was scooped onto a spatula, which was used to apply a thin layer of the gel in a circle of approximately 1-cm diameter on the stratum corneum. After allowing the gel to dry on the skin for 10 minutes, the skin sample was returned to the closed container with the saturated paper towel to allow the skin to remain hydrate while the reaction continued to develop. After 3 hours, the skin was removed and washed liberally by scrubbing the skin with a loofah saturated with a soap solution of 10% alcanox in water until a foam lather was formed, rinsed with reverse-osmosis water, and wiped with a paper towel saturated with a 70% isopropanol solution, and finally patted dry with a paper towel. This washing procedure was repeated five times.

Compound	alteration of the absorption profiles of the ultraviolet-absorbing moieties by the 3-(3,4-diformylphenyl)propyl moiety [1]	visible absorption introduced by the 3-(3,4-diformylphenyl)propyl moiety [1]	localization / penetration in skin layers ([2]; excessively washed, bisected through to the subcutis)	retention of the mark on skin after washing [2]
CC(C)(C)c1cc(CCC(=O)OCCCc2ccc(C=O)c(C=O)c2)cc(-n2nc3ccccc3n2)c1O [Example 3, 3-(3,4-diformylphenyl)propyl 3-(3-(2H-benzo[d][1,2,3]triazol-2-yl)-5-(tert-butyl)-4-hydroxyphenyl)propanoate]	only minor alteration of the absorption profiles	without introducing substantial visible absorption		
COc1ccc(C=CC(=O)OCCCc2ccc(C=O)c(C=O)c2)cc1 [Example 5, 3-(3,4-diformylphenyl)propyl 3-(4-methoxyphenyl)acrylate]	only minor alteration of the absorption profiles	without introducing substantial visible absorption		
Cc1c(C)c(O)c(C=O)c(C=O)c1O [3,6-dihydroxy-4,5-dimethyl-1,2-benzenedicarboxaldehyde]			localized in the stratum corneum and did not penetrate to lower epidermal or dermal layers of the skin	retained
CCN(CC)c1ccc(C(=O)c2ccccc2C(=O)OCCCc2ccc(C=O)c(C=O)c2)c(O)c1 [Example 4, 3-(3,4-diformylphenyl)propyl 2-(4-(diethylamino)-2-hydroxybenzoyl)benzoate]	only minor alteration of the absorption profiles	without introducing substantial visible absorption		
COC(=O)C1=CO[C@@H](O)[C@@H]2C(CO)=CC[C@H]12 [genipin, reference compound]				retained
